From publication PMC9820082, “Synthesis of 9-Hydroxy-1H-Benzo[f]chromene Derivatives with Effective Cytotoxic Activity on MCF7/ADR, P-Glycoprotein Inhibitors, Cell Cycle Arrest and Apoptosis Effects” (International Journal of Molecular Sciences, 2022)

How the values were obtained:
[1] = test system: Adriamycin (ADR)-resistant human breast cancer cells (MCF-7/ADR); assay: Cytotoxicity against MCF-7/ADR cells; assay type: cell-based; conditions: 24 h exposure, mean ± standard error
Method: (§1) Three human cancer cell lines, PC-3 (human prostate adenocarcinoma, metastatic), […], were used to test the anti-proliferative activity of β-enaminonitrile (4a–p) using the MTT colorimetric assay at concentrations ranging from 0–100 μM. The representative active cytotoxic substances 4a, 4c, 4d, 4e, 4g, 4i, 4k and 4o were also tested against two normal cell lines, human fetal lung (HFL-1) and human diploid fibroblasts (WI-38), as well as Adriamycin (ADR)-resistant human breast cancer cells (MCF-7/ADR). The reference cytotoxic agents, Vinblastine and Doxorubicin, were used in the tests.
(§2) The tumor cell lines MCF-7, HepG-2, PC-3 MCF-7/ADR, HFL-1 and (WI-38) were obtained from the American Type Culture Collection (ATCC, Rockville, MD, USA). The cells were grown on RPMI-1640 medium supplemented with 10% inactivated fetal calf serum and 50 µg/mL gentamycin. The cells were maintained at 37 ^οC in a humidified atmosphere with 5% CO2 and were subcultured two to three times a week.
(§3) The cytotoxic activity was appraised using the 3-(4,5-dimethylthiazol-2-yl)-2,5-diphenyltetrazolium bromide (MTT) colorimetric assay for the antitumor cell lines, as reported previously, and the ELISA assay for MCF-7/ADR [69].

P-glycoprotein (P-gp) = assay: P-gp content in MCF-7/ADR cell lysate (human P-gp ELISA kit); assay type: cell-based; conditions: for inhibitory effect on the P-gp level: MCF-7/ADR, in words; for inhibition at 48 h, 12.5 µM / inhibition at 48 h, 25 µM / inhibition at 48 h, 50 µM / inhibition at 48 h, 100 µM / IC50 at 48 h: human, MCF-7/ADR cells (cell lysate), MCF-7/ADR cell lysate, ELISA; for inhibition at 48 h, 12.5 µM: Conc. 12.5 (µM); for inhibition at 48 h, 25 µM: Conc. 25 (µM); for inhibition at 48 h, 50 µM: Conc. 50 (µM); for inhibition at 48 h, 100 µM: Conc. 100 (µM)
Method: P-glycoprotein (P-gp)-mediated multidrug resistance (MDR) is a phenomenon in which cells become resistant to structurally and mechanistically unrelated drugs, resulting in low intracellular drug concentrations. It is one of the noteworthy problems in malignant tumor clinical therapeutics.
The content of P-gp in the MCF-7/ADR cell lysates after incubation with varying conc. (12.5–100 µM) of tested compounds 4a, 4c, 4d, 4e, 4g and 4i following exposure for 48 hr was determined using a commercial human P-gp (Permeability Glycoprotein) ELISA Kit (MBS2506188, MyBioSource Inc., San Diego, CA, USA). Absorption was recorded at 450 nm with a Spectramax Gemini fluorescence microplate reader (Molecular Devices, Sunnyvale, CA, USA).

[2] = test system: SKOV-3 (ovarian cancer cell line); assay: MTT colorimetric cytotoxicity assay, SKOV-3; assay type: cell-based, human; conditions: 24 h incubation, mean ± standard error
Method: as §1, §3

[3] = test system: human diploid fibroblasts (WI-38); assay: Cytotoxicity against normal cell line WI-38; assay type: cell-based; conditions: 24 h incubation, mean ± standard error
Method: as §1, §2, §3

[4] = target: T1, P-gp activity (efflux function) (Homo sapiens, UniProt P08183); assay: Rhodamine 123 accumulation assay in MCF-7/ADR cells; assay type: cell-based; conditions: 4 h with compound then 5.25 μM Rho123 for 30 min
T1 construct: measuring intracellular accumulation of Rhodamine 123 in MCF-7/ADR cells; endogenous in cells; host or cells: MCF-7/ADR (Adriamycin-resistant human breast cancer cells)
T1 sequence (P08183 whole entry): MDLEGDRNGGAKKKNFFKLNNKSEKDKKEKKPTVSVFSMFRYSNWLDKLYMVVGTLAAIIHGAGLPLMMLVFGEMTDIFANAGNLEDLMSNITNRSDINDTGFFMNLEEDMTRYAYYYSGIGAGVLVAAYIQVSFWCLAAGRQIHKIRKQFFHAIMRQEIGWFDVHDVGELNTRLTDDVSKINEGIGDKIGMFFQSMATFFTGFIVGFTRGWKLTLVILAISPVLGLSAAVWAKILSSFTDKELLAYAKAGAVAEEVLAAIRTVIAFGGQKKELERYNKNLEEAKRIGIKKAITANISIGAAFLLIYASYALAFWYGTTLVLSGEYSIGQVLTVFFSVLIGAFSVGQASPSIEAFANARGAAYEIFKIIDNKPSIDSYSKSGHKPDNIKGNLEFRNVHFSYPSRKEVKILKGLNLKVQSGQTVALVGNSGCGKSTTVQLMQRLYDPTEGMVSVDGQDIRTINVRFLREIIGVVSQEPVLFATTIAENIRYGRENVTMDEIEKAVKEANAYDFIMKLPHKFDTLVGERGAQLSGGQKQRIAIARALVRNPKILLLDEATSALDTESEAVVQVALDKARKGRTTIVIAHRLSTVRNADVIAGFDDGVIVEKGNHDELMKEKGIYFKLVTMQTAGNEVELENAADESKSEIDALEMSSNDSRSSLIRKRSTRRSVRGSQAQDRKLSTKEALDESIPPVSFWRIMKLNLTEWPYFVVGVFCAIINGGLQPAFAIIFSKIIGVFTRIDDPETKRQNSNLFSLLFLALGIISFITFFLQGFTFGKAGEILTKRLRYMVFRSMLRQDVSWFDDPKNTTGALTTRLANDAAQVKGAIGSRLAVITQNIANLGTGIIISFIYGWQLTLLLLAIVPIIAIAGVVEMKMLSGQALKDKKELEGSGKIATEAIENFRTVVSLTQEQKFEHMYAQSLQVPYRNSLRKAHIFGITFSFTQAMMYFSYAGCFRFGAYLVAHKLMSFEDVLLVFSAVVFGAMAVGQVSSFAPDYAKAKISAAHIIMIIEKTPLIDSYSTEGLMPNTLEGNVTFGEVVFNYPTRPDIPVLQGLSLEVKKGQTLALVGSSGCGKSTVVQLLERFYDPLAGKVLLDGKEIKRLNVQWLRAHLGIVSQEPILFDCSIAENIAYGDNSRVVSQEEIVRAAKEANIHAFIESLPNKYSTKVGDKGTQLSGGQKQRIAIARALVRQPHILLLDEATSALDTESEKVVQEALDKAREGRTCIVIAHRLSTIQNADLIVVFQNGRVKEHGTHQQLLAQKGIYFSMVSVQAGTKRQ
Method: Furthermore, the reversion of P-gp-mediated multidrug resistance could be achieved by the down-regulation of P-gp expression and/or P-gp efflux function inhibition.
Briefly, resistant cancer cells were harvested, washed twice and counted. […] of each well was measured using a Spectramax Gemini fluorescence microplate reader (Molecular Devices, Sunnyvale, CA, USA). The total content of Rhodamine in each sample was determined by comparison with a Rhodamine standard curve.

MCF-7/ADR cells = assay: Annexin V/PI double staining flow cytometric apoptosis test; assay type: cell-based, human; conditions: IC50 value, 24 h
Description: One of the optional mechanisms regarding the lethal action of chemotherapeutic medicines is blocking cell cycle progression, triggering apoptosis with otherwise mutual effect. […] The pivotal relation of the newly synthesized MCF-7/ADR “anticancer drugs” was further evaluated using the Annexin V/PI double staining flow cytometric test. […] In comparison to Doxorubicin’s 30% total apoptosis rate, which was nearly identical to 4a, 4c and 4g, compounds 4d, 4e and 4i were leading with percentages of 41%, 31% and 38%, respectively. Only compounds 4a (8.5%) and 4g (11%) had greater effects on necrosis compared to doxorubicin (5%). Other examined substances caused both early and late apoptosis in all treated cells (Figure 7b). Therefore, MCF-7/ADR cytotoxicity is induced by apoptotic processes, apparently without negative effects on P-gp.
(a) The dot plot of the Annexin V/PI-stained cells, treated with the indicated drugs. […] The data are expressed as the mean ± SD of three independent experiments in triplicate. Significances are shown in comparison to control cells (* p < 0.001). TEXT PRINTED IN THE PICTURE: (a) DOX.: 3.33%; 18.41%; 7.85% | (a) 4a: 8.66%; 18.17%; 4.24% | (a) 4c: 2.74%; 12.73%; 9.11% | (a) 4d: 4.85%; 27.44%; 8.73% | (a) 4e: 5.77%; 9.92%; 15.92% | (a) 4g: 11.04%; 3.94%; 7.38% | (a) 4i: 5.54%; 12.87%; 19.61% DOUBTS OF THE COPYIST ABOUT THIS PICTURE: The quadrant percentages in panel (a) are printed very small and blurred, so 3, 5, 6, 8 and 9 cannot be told apart with certainty. […] They are told apart only by their quadrant in the PI / Annexin V-FITC plot, and are listed upper left, upper right, lower right. / The sample line in each plot reads MCF7/ADR. In the 4g plot it is cut off as 'MCF7/AI'. / The panel 'Cont.' (untreated control: 1.56%, 0.15%, 0.48%) is left out because it is not a substance.

[5] = Homo sapiens, NCI/ADR-RES, 24 h

Structure (SMILES) | inhibition at 48 h, 12.5 µM (P-glycoprotein (P-gp)) [%] | inhibition at 48 h, 25 µM (P-glycoprotein (P-gp)) [%] | inhibition at 48 h, 50 µM (P-glycoprotein (P-gp)) [%] | inhibition at 48 h, 100 µM (P-glycoprotein (P-gp)) [%] | IC50 at 48 h (P-glycoprotein (P-gp)) [µM] | IC50 [4] [µM] | IC50 [1, 5] [µM] | inhibitory effect on the P-gp level (P-glycoprotein (P-gp)) | IC50 ([2]; Homo sapiens, SK-OV-3, 24 h) [µM] | IC50 [3] [µM] | IC50 ([3]; Homo sapiens, WI-38, 24 h) [µM] | necrosis (MCF-7/ADR cells) [%] | IC50 [1] [µM] | IC50 [2] [µM] | total apoptosis rate (MCF-7/ADR cells) [%]
N#CC1=C(N)Oc2ccc3ccc(O)cc3c2C1c1cccc(Cl)c1Cl (stereo not shown) [4c, 3-Amino-1-(2,3-Dichlorophenyl)-9-Hydroxy-1H-Benzo[f]chromene-2-Carbonitrile] | 26 | 37 | 71 | 88 | 30.8 | 28.7 | 8.6 to 11.5 | strong inhibitory effect |  |  | 29.4 ± 0.1 |  | 12.4 ± 0.1 | 4 ± 0.6 | 
N#CC1=C(N)Oc2ccc3ccc(O)cc3c2C1c1ccc(Cl)cc1Cl (stereo not shown) [4d, 3-Amino-1-(2,4-Dichlorophenyl)-9-Hydroxy-1H-Benzo[f]chromene-2-Carbonitrile] | 10 | 25 | 43 | 69 | 65.9 | 46.6 | 10.4 ± 0.3 | almost negligible inhibitory effect | 1.5 ± 0.1 | 39.1 ± 0.2 |  |  |  |  | 41
N#CC1=C(N)Oc2ccc3ccc(O)cc3c2C1c1ccc(Cl)c(Cl)c1 (stereo not shown) [4g, 3-Amino-1-(3,4-Dichlorophenyl)-9-Hydroxy-1H-Benzo[f]chromene-2-Carbonitrile] | 23 | 34 | 66 | 83 | 34.6 | 36.7 | 11.5 ± 0.4 |  | 0.9 ± 0.3 |  | 26.3 ± 0.2 | 11 |  |  | 
N#CC1=C(N)Oc2ccc3ccc(O)cc3c2C1c1cc(Br)cc(Br)c1 (stereo not shown) [4i, 3-Amino-1-(3,5-Dibromophenyl)-9-Hydroxy-1H-Benzo[f]chromene-2-Carbonitrile] | 15 | 30 | 48 | 76 | 53.6 | 55.3 | 8.6 ± 0.7 | almost negligible inhibitory effect | 1.2 |  | 29.2 ± 1.2 |  |  | 1.1 ± 0.1 | 38

Compounds with a lower IC50 [4], results first:

inhibition at 48 h, 12.5 µM (P-glycoprotein (P-gp)) [%] | inhibition at 48 h, 25 µM (P-glycoprotein (P-gp)) [%] | inhibition at 48 h, 50 µM (P-glycoprotein (P-gp)) [%] | inhibition at 48 h, 100 µM (P-glycoprotein (P-gp)) [%] | IC50 at 48 h (P-glycoprotein (P-gp)) [µM] | IC50 [4] [µM] | Structure (SMILES) | IC50 [1, 5] [µM] | inhibitory effect on the P-gp level (P-glycoprotein (P-gp)) | IC50 ([2]; Homo sapiens, SK-OV-3, 24 h) [µM] | IC50 [3] [µM] | IC50 ([3]; Homo sapiens, WI-38, 24 h) [µM] | necrosis (MCF-7/ADR cells) [%] | IC50 [1] [µM] | IC50 [2] [µM] | total apoptosis rate (MCF-7/ADR cells) [%]
25 | 37 | 68 | 80 | 32 | 23.3 | N#CC1=C(N)Oc2ccc3ccc(O)cc3c2C1c1ccc(F)cc1F (stereo not shown) [4a, 3-Amino-1-(2,4-Difluorophenyl)-9-Hydroxy-1H-Benzo[f]chromene-2-Carbonitrile] | 10.8 ± 0.4 | strong inhibitory effect | 1.4 ± 0.2 | 34.3 ± 1.2 | 19.1 to 30.1 | 8.5 |  |  | 
36 | 54 | 80 | 91 | 18.7 | 14.6 | N#CC1=C(N)Oc2ccc3ccc(O)cc3c2C1c1cc(Cl)ccc1Cl (stereo not shown) [4e, 3-Amino-1-(2,5-Dichlorophenyl)-9-Hydroxy-1H-Benzo[f]chromene-2-Carbonitrile] | 10 ± 0.3 | strong inhibitory effect | 1.1 ± 0.4 |  | 25.4 ± 1.1 |  |  |  | 31
